Experiment [1] concerns APT73 (SEQ ID NO: 4) variant APT73.52 (S205R, S223A, K225H, A260G, Y276E, G282R, A283C, S284L; residues 285 onward removed from the C-terminus), SEQ ID NO: 69. Kind of experiment: Kinetic characterization of purified enzyme with OA and GPP as substrates. The note with it: APT73.52, purified enzyme. The experiment is classed as biochemical. How it is done:
(§1) In order to compare the enzyme's activities more accurately, larger cultures of the best hits and controls from the first screen were grown and the enzymes were purified according to the following protocol. Glycerol stocks of each recombinant strain were used to inoculate 2 mL of LB with 50 μg/mL kanamycin. […]. The cultures were grown at 37° C. with 250 rpm shaking until an OD600 of approximately 0.8-1. At this point, the cultures were transferred to a shaker at room temperature for 30 min, after which they were induced with 0.25 mM IPTG. After 16 h at 150 rpm shaking, the cells were pelleted by centrifugation
(§2) Cell pellets were resuspended in 10 mL lysis buffer (B-PER with 5 mM MgCl2, 100 μg/mL lysozyme, and 2 μL/mL DNaseI (TURBO DNase ThermoFisher)). After incubation at room temperature for 10 min, the cell debris were removed by centrifugation at 4750 rpm for 10 min at 4° C. Lysates were loaded in pre-equilibrated cobalt spin columns (ThermoFisher, HisPur Cobalt spin column, 1 mL) and tagged proteins were purified according to manufacturer's protocol. The eluted proteins were exchanged into the final buffer (TrisHCl 25 mM, 5 mM MgCl2, 150 mM NaCl 10% v/v glycerol) using Amicon Ultra 15 centrifugal filters (10 kDa MWCO). Proteins can be stored at −20° C. for at least a week.
(§3) Selected mutants from the previous screenings were cloned in E. coli vectors and were purified as described in Example 3.

Experiment [2] has as its system APT73 (SEQ ID NO: 4) variant APT73.13 (S205R, G282R, A283C, S284L; residues 285 onward removed from the C-terminus), SEQ ID NO: 36. The experiment is described as above. It counts as biochemical. The following applies: APT73.13, purified enzyme. How it is done:
as §1, §2, §3

Experiment [3] deals with APT73 (SEQ ID NO: 4) variant APT73.30 (S205R, S223A, K225H, A260G, Y276L, G282R, A283C, S284L; residues 285 onward removed from the C-terminus), SEQ ID NO: 56. The experiment is described as above. The experiment is classed as biochemical. The following applies: APT73.30, purified enzyme. How it is done:
as §1, §2, §3

Experiment [4] relates to APT73 (SEQ ID NO: 4) variant APT73.47 (A156I, S205R, S223A, K225H, A260G, Y276L, G282R, A283C, S284L; residues 285 onward removed from the C-terminus), SEQ ID …. The description is as above. The experiment is classed as biochemical. The note with it: APT73.47, purified enzyme. How it is done:
as §1, §2, §3

Experiment [5] concerns APT89, aromatic prenyltransferase, wild type, SEQ ID NO: 2 (expressed with His tag: SEQ ID NO: 9, 81). The description is as above. It counts as biochemical. How it is done:
as §1, §2, §3

Experiment [6] deals with NphB, aromatic prenyltransferase from Streptomyces sp. (strain CL190), wild type, Uniprot ID: Q4R2T2, SEQ ID NO: 20. The following applies: OA and GPP as substrates, from literature (Valliere et al. Nature Commun. 2019, 10, 565); cited from earlier work.

Consider `CCCCCc1cc(O)c(C/C=C(\C)CCC=C(C)C)c(O)c1C(=O)O` [CBGA, cannabigerolic acid], for which the “Kcat (CBGA)” value in experiment [1] worked out at 0.08 s⁻¹; in experiment [2] it was 0.049 s⁻¹; in experiment [3] it was 0.113 s⁻¹; in experiment [4], 0.175 s⁻¹; in experiment [5], 0.001 s⁻¹.
For orientation: Km means the concentration of substrate that gives half-maximal velocity. `CCCCCc1cc(O)cc(O)c1C(=O)O` [OA, olivetolic acid]: the Michaelis constant (Km) in experiment [1] was 101 ± 14 µM; in experiment [2], 1100 ± 93 µM; in experiment [3], 501 ± 88 µM; in experiment [4], 205 ± 165 µM; in experiment [5], 33 ± 4 µM; in experiment [6] it was 640 µM.

The values above are taken from patent US20250346871A1, “PRENYLTRANSFERASES AND METHODS OF MAKING AND USE THEREOF” (priority 2020, published 2025).
